Test results taken from PubChem BioAssay AID248 (DTP/NCI, 2004).
Values joined by “and” are separate entries in the source; they are usually repeats but may differ in a detail not shown here. Equal entries are not always repeated. Toxic doses and inconclusive results are not listed. Cut-off read from the data, not from the text of the source: active = T/C of 150% or more; inactive = T/C below 125%.

Test system: L1210 leukemia ip in BDF1 mice, survival T/C
Test: NCI In Vivo Anticancer Drug Screen. Data for tumor model L1210 Leukemia (intraperitoneal) in B6D2F1 (BDF1) mice
Details: endpoint: mean survival time, higher = longer survival
Method in brief: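 Antitumor effect is assessed in tumor-bearing animals. Survival in the compound arm is compared with a vehicle-dosed control arm and expressed as their quotient.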

[1] = dose: 50.0 mg/kg/injection, schedule: Q01DX009 (ip), vehicle: saline
[2] = dose: 75.0 mg/kg/injection, schedule: Q01DX001 (ip), vehicle: saline
[3] = dose: 100.0 mg/kg/injection, schedule: Q01DX009 (ip), vehicle: saline
[4] = dose: 200.0 mg/kg/injection, schedule: Q01DX009 (ip), vehicle: saline
[5] = dose: 400.0 mg/kg/injection, schedule: Q01DX009 (ip), vehicle: saline
[6] = dose: 100.0 mg/kg/injection, schedule: Q01DX001 (ip), vehicle: Klucel (hydroxypropylcellulose) (HPC)
[7] = dose: 200.0 mg/kg/injection, schedule: Q01DX001 (ip), vehicle: Klucel (hydroxypropylcellulose) (HPC)
[8] = dose: 100.0 mg/kg/injection, schedule: Q04DX003 (ip), vehicle: saline
[9] = dose: 200.0 mg/kg/injection, schedule: Q04DX003 (ip), vehicle: saline
[10] = dose: 400.0 mg/kg/injection, schedule: Q04DX003 (ip), vehicle: saline
[11] = dose: 100.0 mg/kg/injection, schedule: Q01DX001 (ip), vehicle: saline
[12] = dose: 200.0 mg/kg/injection, schedule: Q01DX001 (ip), vehicle: saline
[13] = dose: 400.0 mg/kg/injection, schedule: Q01DX001 (ip), vehicle: saline
[14] = dose: 400.0 mg/kg/injection, schedule: Q01DX001 (ip), vehicle: Klucel (hydroxypropylcellulose) (HPC)
[15] = dose: 100.0 mg/kg/injection, schedule: Q04DX002 (ip), vehicle: Klucel (hydroxypropylcellulose) (HPC)
[16] = dose: 200.0 mg/kg/injection, schedule: Q04DX002 (ip), vehicle: Klucel (hydroxypropylcellulose) (HPC)

Measured: T/C

C/C(=N/Nc1c(F)c(F)c(-c2c(F)c(F)c(N/N=C(\C)c3ccccc3)c(F)c2F)c(F)c1F)c1ccccc1
inactive: dose: 25.6 mg/kg/injection, schedule: Q04DX002 (ip), vehicle: saline with Tween-80 95 % of control | dose: 64.0 mg/kg/injection, schedule: Q04DX002 (ip), vehicle: saline with Tween-80 92 % of control | dose: 160.0 mg/kg/injection, schedule: Q04DX002 (ip), vehicle: saline with Tween-80 89 % of control | dose: 400.0 mg/kg/injection, schedule: Q04DX002 (ip), vehicle: saline with Tween-80 92 % of control

CC1(C)N=C(N)N=C(N)N1c1ccccc1F
inactive: dose: 25.0 mg/kg/injection, schedule: Q01DX009 (ip), vehicle: saline 93 % of control | dose: 38.0 mg/kg/injection, schedule: Q01DX001 (ip), vehicle: saline 101 % of control | [1] 91 % of control | [2] 101 % of control | dose: 75.0 mg/kg/injection, schedule: Q01DX009 (ip), vehicle: saline 110 % of control

N=C(N=c1cc(C(=O)NC(=N)NC(=N)Nc2ccccc2)n(C(=N)NC(=N)Nc2ccccc2)c(C(=O)NC(=N)NC(=N)Nc2ccccc2)c1)NC(=N)Nc1ccccc1
inactive: [3] 105 % of control | [4] 94 % of control | [5] 87 % of control

CCOC(=O)Cc1ccc(N)cc1
inactive: [6] 104 % of control | [7] 101 % of control

CC(C)(C)NC(=O)Oc1ccccc1C(N)=O
inactive: dose: 100.0 mg/kg/injection, schedule: Q01DX009 (ip), vehicle: Klucel (hydroxypropylcellulose) (HPC) 95 % of control | dose: 200.0 mg/kg/injection, schedule: Q01DX009 (ip), vehicle: Klucel (hydroxypropylcellulose) (HPC) 95 % of control | dose: 400.0 mg/kg/injection, schedule: Q01DX009 (ip), vehicle: Klucel (hydroxypropylcellulose) (HPC) 94 % of control

CC(=O)NS(=O)(=O)CCCC[n+]1c(C)oc2ccc(-c3ccccc3)cc21
inactive: dose: 100.0 mg/kg/injection, schedule: Q04DX003 (sc), vehicle: olive oil, sesame oil, peanut oil 98 % of control | dose: 200.0 mg/kg/injection, schedule: Q04DX003 (sc), vehicle: olive oil, sesame oil, peanut oil 100 % of control | dose: 400.0 mg/kg/injection, schedule: Q04DX003 (sc), vehicle: olive oil, sesame oil, peanut oil 100 % of control

CC(C)C1(O)C=CC(C)(O)CC1 (stereo unspecified)
inactive: [8] 102 % of control | [9] 102 % of control | [10] 107 % of control

S=C(Nc1ccc(Cl)c(Cl)c1)SCc1ccco1
inactive: dose: 30.0 mg/kg/injection, schedule: Q04DX003 (ip), vehicle: saline with Tween-80 101 % of control | dose: 60.0 mg/kg/injection, schedule: Q04DX003 (ip), vehicle: saline with Tween-80 101 % of control | dose: 120.0 mg/kg/injection, schedule: Q04DX003 (ip), vehicle: saline with Tween-80 101 % of control

C=CCCCCCCCCC(=O)NN1CCOCC1
inactive: dose: 100.0 mg/kg/injection, schedule: Q04DX003 (ip), vehicle: saline with Tween-80 98 % of control | dose: 200.0 mg/kg/injection, schedule: Q04DX003 (ip), vehicle: saline with Tween-80 92 % of control | dose: 400.0 mg/kg/injection, schedule: Q04DX003 (ip), vehicle: saline with Tween-80 92 % of control

O=C(CC1(c2ccccc2)C(=O)c2ccccc2C1=O)c1ccccc1
inactive: dose: 100.0 mg/kg/injection, schedule: Q01DX001 (ip), vehicle: carboxymethylcellulose (CMC) 94 % of control | dose: 200.0 mg/kg/injection, schedule: Q01DX001 (ip), vehicle: carboxymethylcellulose (CMC) 91 % of control | dose: 400.0 mg/kg/injection, schedule: Q01DX001 (ip), vehicle: carboxymethylcellulose (CMC) 94 % of control

Cc1[nH]c(=O)[nH]c(=O)c1CCS
inactive: [11] 94 % of control | [12] 95 % of control | [13] 101 % of control

O=C(O)/C=C\C=C\c1ccccc1
inactive: [11] 89 % of control | [12] 94 % of control | [13] 96 % of control

CC(=O)Nc1nc(C(=O)O)c(CCCCc2ccccc2)c(=O)[nH]1
inactive: [6] 95 % of control | [7] 98 % of control | [14] 101 % of control

CC12C(=O)NC(=O)N3CCCN4C(=O)NC(=O)C1(C)C4C32 (stereo unspecified)
inactive: [2] 94 % of control | dose: 150.0 mg/kg/injection, schedule: Q01DX001 (ip), vehicle: saline 97 % of control | dose: 300.0 mg/kg/injection, schedule: Q01DX001 (ip), vehicle: saline 100 % of control

Cc1ccccc1SCC#CCSc1ccccc1C
inactive: [6] 93 % of control | [7] 95 % of control | [14] 106 % of control

CC(C)Cc1c(N)nc(=O)[nH]c1C(=O)O
inactive: dose: 75.0 mg/kg/injection, schedule: Q01DX009 (ip), vehicle: Klucel (hydroxypropylcellulose) (HPC) 95 % of control | [6] 96 % of control | dose: 150.0 mg/kg/injection, schedule: Q01DX009 (ip), vehicle: Klucel (hydroxypropylcellulose) (HPC) 98 % of control | [7] 100 % of control | dose: 300.0 mg/kg/injection, schedule: Q01DX009 (ip), vehicle: Klucel (hydroxypropylcellulose) (HPC) 101 % of control | [14] 100 % of control

OC1COC(O)C(O)C1O (stereo unspecified)
inactive: [3] 98 % of control | [8] 104 % of control | [4] 103 % of control | [9] 111 % of control | dose: 250.0 mg/kg/injection, schedule: Q04DX003 (ip), vehicle: saline 93 % of control | [5] 104 % of control | [10] 104 % of control | dose: 500.0 mg/kg/injection, schedule: Q04DX003 (ip), vehicle: saline 96 % of control | dose: 1000.0 mg/kg/injection, schedule: Q04DX003 (ip), vehicle: saline 102 % of control | dose: 2000.0 mg/kg/injection, schedule: Q04DX003 (ip), vehicle: saline 91 % of control

Cn1c(=O)c2c(nc(CCCCCCCc3nc4c(c(=O)n(C)c(=O)n4C)n3C)n2C)n(C)c1=O
inactive: [11] 98 % of control | [12] 98 % of control | [13] 98 % of control

O=C(NCc1ccccc1Cl)NC1CCCCC1
inactive: [15] 87 % of control | [16] 102 % of control | dose: 400.0 mg/kg/injection, schedule: Q04DX002 (ip), vehicle: Klucel (hydroxypropylcellulose) (HPC) 105 % of control

CCCCCCCCCCCCCCCCC/C=N/Nc1nnc(N/N=C/CCCCCCCCCCCCCCCCC)c2ccccc12
inactive: dose: 50.0 mg/kg/injection, schedule: Q01DX001 (ip), vehicle: saline 95 % of control | [11] 103 % of control | [12] 101 % of control | [13] 101 % of control

c1ccc(C2(N3CCC4(CC3)OCCO4)CCCCC2)cc1
inactive: [15] 102 % of control | [16] 105 % of control

CNC(=Nc1ccc(NC(=O)c2ccc(C(=O)Nc3ccc(N=C(NC)c4ccccc4)cc3)cc2)cc1)c1ccccc1
inactive: dose: 3.75 mg/kg/injection, schedule: Q01DX Z (ip), vehicle: saline 106 % of control | dose: 7.5 mg/kg/injection, schedule: Q01DX Z (ip), vehicle: saline 100 % of control | dose: 15.0 mg/kg/injection, schedule: Q01DX Z (ip), vehicle: other 91 % of control | dose: 15.0 mg/kg/injection, schedule: Q01DX Z (ip), vehicle: saline 105 % of control

C=C1CC2(CCC23COC(=O)C3=C)OC1=O (stereo unspecified)
inactive: dose: 1.56 mg/kg/injection, schedule: Q01DX001 (ip), vehicle: other 98 % of control | dose: 3.12 mg/kg/injection, schedule: Q01DX001 (ip), vehicle: other 102 % of control and 109 % of control | dose: 6.25 mg/kg/injection, schedule: Q01DX001 (ip), vehicle: other 105 % of control and 121 % of control | dose: 12.5 mg/kg/injection, schedule: Q01DX001 (ip), vehicle: other 102 % of control

CC(=O)SC(C)CC(=O)O (stereo unspecified)
inactive: [8] 106 % of control | [9] 101 % of control

Nc1nc(N)c2nonc2n1
inactive: dose: 12.5 mg/kg/injection, schedule: Q01DX005 (ip), vehicle: other 97 % of control | dose: 25.0 mg/kg/injection, schedule: Q01DX005 (ip), vehicle: other 90 % of control | dose: 50.0 mg/kg/injection, schedule: Q01DX005 (ip), vehicle: other 92 % of control | dose: 100.0 mg/kg/injection, schedule: Q01DX005 (ip), vehicle: other 89 % of control | dose: 200.0 mg/kg/injection, schedule: Q01DX005 (ip), vehicle: other 92 % of control

O=C(Oc1ccc([N+](=O)[O-])cc1)c1ccc(CBr)cc1
inactive: [1] 104 % of control | [3] 102 % of control | [8] 94 % of control | [4] 94 % of control | [9] 94 % of control

BrC12CCC(CC1)C1(Br)CCC2CC1
inactive: [11] 102 % of control | [8] 86 % of control | [12] 96 % of control | [9] 91 % of control | [13] 89 % of control | [10] 86 % of control
